Experimental data from patent US8106236B2, “Triaryl compounds and derivates thereof” (Ortho-McNeil Pharmaceutical, Inc., priority 2006, dated 2012).

Key:
Aβ42 [1] = assay: In vivo Aβ42 lowering, mouse; conditions: oral dose 30 mpk at 4 hr time point, read-out: Mouse Efficacy % Lowering Aβ 42
Text: (§1) To determine whether acute administration of an Aβ42 lowering agent would reduce Aβ42 levels in vivo, non-transgenic rodents, e.g. mice or rats can be used. Alternatively, two to three month old Tg2576 mice expressing APP695 containing the “Swedish” variant can be used or a transgenic mouse model developed by Dr. Fred Van Leuven (K.U.Leuven, Belgium) and co-workers, with neuron-specific expression of a clinical mutant of the human amyloid precursor protein [V717I] (Moechars et al., 1999 J. Biol. Chem. 274, 6483). […] Animals of this age have high levels of Aβ in the brain but no detectable Aβ deposition. Mice treated with the Aβ42 lowering agent will be examined and compared to those untreated or treated with vehicle and brain levels of soluble Aβ42 and total Aβ would be quantitated by standard techniques, for example, using ELISA. Treatment periods may vary from hours to days and will be adjusted based on the results of the Aβ42 lowering once a time course of onset of effect can be established.
(§2) A typical protocol for measuring Aβ42 lowering in vivo is shown but it is only one of many variations that could be used to optimize the levels of detectable Aβ. For example, aliquots of compounds can be dissolved in DMSO (volume equal to 1/10th of the final formulation volume), vortexed and further diluted (1:10) with a 10% (w/v) hydroxypropyl β cyclodextrin (HBC, Aldrich, Ref N° 33,260-7) solution in PBS, where after they are sonicated for 20 seconds.
(§3) Aβ42 lowering agents may be administered as a single oral dose given three to four hours before sacrifice and analysis or alternatively could be given over a course of days and the animals sacrificed three to four hours after the final dose is given.
(§4) Blood is collected at sacrifice. The blood collection is performed via a heart puncture during anesthesia with a mixture of Ketalar (Ketamin), Rompun (Xylazin 2%) and Atropin (2:1:1) and collected in EDTA treated collection tubes. Blood is centrifuged at 4000 g for 5 minutes at 4° C. and the plasma recovered for analysis.
(§5) The mice are anaesthetized with a mixture of Ketalar (Ketamin), Rompun (Xylazin 2%) and Atropin (2:1:1) and flushed trans-cardially with physiological serum at 4° C.
(§6) The brain is removed from the cranium and hindbrain and forebrain are separated with a cut in the coronal/frontal plane. The cerebellum is removed. The forebrain is divided evenly into left and right hemisphere by using a midline sagital cut.
(§7) One hemisphere is immediately immersed in liquid nitrogen and stored at −70° C. until homogenization for biochemical assays.
(§8) Brains are homogenized using a Potter, a glass tube (detergent free, 2 cm^3) and a mechanical homogenizer (650 rpm). A volume of 6.5×½ brain weight of freshly prepared 20 mM Tris/HCl buffer (pH 8.5) with Proteinase Inhibitors (1 tablet per 50 ml Tris/HCl buffer, Complete™, Roche, Mannheim, Germany) is used as homogenization buffer.
(§9) Samples are transferred from −70° C. into a sample holder with liquid nitrogen and each individual sample is pre-warmed by incubation on the bench for a few seconds prior to homogenization. The homogenates are collected in Beckman centrifuge tubes TLX and collected on ice prior to centrifugation. Between two samples, the Potter and the glass tube are rinsed carefully with distilled water without detergents and dried with absorption paper.
(§10) Samples are centrifuged in a pre-cooled ultracentrifuge (Beckman, Mannheim, Germany) for 1 hour and 20 minutes at 48000 rpm (135.000×g) at 4° C. The supernatant (soluble fraction containing secreted APP and amyloid peptides) is separated from the pellet (membrane fraction containing membrane-bound APP-fragments and plaque-associated amyloid peptides in case of aged mice).
(§11) Small reversed phase columns (C18-Sep-Pack Vac 3 cc cartridges, Waters, Mass., MA) are mounted on a vacuum system and washed with 80% acetonitrile in 0.1% Trifluoroacetic acid (A-TFA) followed with 0.1% TFA twice. […]

Aβ42 [2] = assay: In vivo Aβ42 lowering, rat; conditions: oral dose 30 mpk at 4 hr time point
Text: as §1, §2, §3, §4, §5, §6, §7, §8, §9, §10, §11

γ-secretase = γ-secretase (Homo sapiens, UniProt P49768); assay: Screening for γ-secretase-modulating activity, Aβ42 in SKNBE2 cells carrying APP 695 wild type; type: cell-based; conditions: read-out: WTAPP SKNBE2 Aβ 42% Inhibition at 3 μM
Description: Screening of the Compounds of the Invention for γ-Secretase-Modulating Activity
Cells were grown to near confluency.

SMILES	inhibition in vivo at 30 mg/kg (Aβ42 [1])	Rat Efficacy % Lowering Aβ 42 (Aβ42 [2])	inhibition at 3 µM (γ-secretase)
CC(C)C[C@H](C(=O)O)c1cc(-c2ccc(C(F)(F)F)cc2)cc(-c2ccc(Cl)c(F)c2)c1 [Compound 50, (S)-2-(4-Chloro-3-fluoro-4″-trifluoromethyl-[1,1′;3′,1″]terphenyl-5′-yl)-4-methyl-pentanoic acid]	48%	28%	–
CC(=O)c1ccc(-c2cc(-c3ccc(C(F)(F)F)cc3)cc(C(CC(C)C)C(=O)O)c2)cc1 (stereo not shown) [Compound 48, 2-(4-Acetyl-4″-trifluoromethyl-[1,1′;3′,1″]terphenyl-5′-yl)-4-methyl-pentanoic acid]	–	–	18%
CC(C)CC(C(=O)O)c1cc(-c2ccc(C(F)(F)F)cc2)cc(-c2cc(F)cc(C#N)c2)c1 (stereo not shown) [Compound 36, 2-(5-Cyano-3-fluoro-4″-trifluoromethyl-[1,1′;3′,1″]terphenyl-5′-yl)-4-methyl-pentanoic acid]	–	–	0%
CC(C)C[C@H](C(=O)O)c1cc(-c2ccc(OC(F)(F)F)cc2)cc(-c2ccc(C(F)(F)F)cc2)c1 [Compound 52, (S)-4-Methyl-2-(4-trifluoromethoxy-4″-trifluoromethyl-[1,1′;3′,1″]terphenyl-5′-yl)-pentanoic acid]	48%	–	–
CC(C)CC(C(=O)O)c1cc(-c2ccc(OC(F)(F)F)cc2)cc(-c2ccc(C(F)(F)F)cc2)c1 (stereo not shown) [Compound 20, 4-Methyl-2-(4-trifluoromethoxy-4″-trifluoromethyl-[1,1′;3′,1″]terphenyl-5′-yl)-pentanoic acid]	50%	20%	–
C=C(C)CC(C(=O)O)c1cc(-c2ccc(C(F)(F)F)cc2)cc(-c2ccc(C(F)(F)F)cc2)c1 (stereo not shown) [Compound 25, 2-(4,4″-Bis-trifluoromethyl-[1,1′;3′,1″]terphenyl-5′-yl)-4-methyl-pent-4-enoic acid]	–	–	82%
CC(C)C[C@H](C(=O)O)c1cc(-c2ccc(C(F)(F)F)cc2)cc(-c2cc(C(F)(F)F)cc(C(F)(F)F)c2)c1 [Compound 43, (S)-4-Methyl-2-(3,5,4″-tris-trifluoromethyl-[1,1′;3′,1″]terphenyl-5′-yl)-pentanoic acid]	40%	–	–
CC(C)C[C@@H](C(=O)O)c1cc(-c2ccc(OC(F)(F)F)cc2)cc(-c2ccc(C(F)(F)F)cc2)c1 [Compound 51, (R)-4-Methyl-2-(4-trifluoromethoxy-4″-trifluoromethyl-[1,1′;3′,1″]terphenyl-5′-yl)-pentanoic acid]	50%	–	–
CC(C)CC(C(=O)O)c1cc(-c2ccc(C(F)(F)F)cc2)cc(-c2ccc(F)cc2F)c1 (stereo not shown) [Compound 2, 2-(2,4-Difluoro-4″-trifluoromethyl-[1,1′;3′,1″]terphenyl-5′-yl)-4-methyl-pentanoic acid]	–	–	53%
CC(C)CC(C(=O)O)c1cc(-c2ccc(C(F)(F)F)cc2)cc(-c2cccc(N(C)C)c2)c1 (stereo not shown) [Compound 49, 2-(3-Dimethylamino-4″-trifluoromethyl-[1,1′;3′,1″]terphenyl-5′-yl)-4-methyl-pentanoic acid]	–	–	-17%
CC(C)CC(C(=O)O)c1cc(-c2ccc(C(F)(F)F)cc2)cc(-c2cccc(C(F)(F)F)c2)c1 (stereo not shown) [Compound 12, 2-(3,4″-Bis-trifluoromethyl-[1,1′;3′,1″]terphenyl-5′-yl)-4-methyl-pentanoic acid]	–	–	86%
CC(C)CC(C(=O)O)c1cc(-c2ccc(C(C)C)cc2)cc(-c2ccc(C(F)(F)F)cc2)c1 (stereo not shown) [Compound 4, 2-(4-Isopropyl-4″-trifluoromethyl-[1,1′;3′,1″]terphenyl-5′-yl)-4-methyl-pentanoic acid]	30%	–	–
CC(C)C[C@H](C(=O)O)c1cc(-c2ccc(C(F)(F)F)cc2)cc(-c2cc(F)cc(F)c2)c1 [Compound 41, (S)-2-(3,5-Difluoro-4″-trifluoromethyl-[1,1′;3′,1″]terphenyl-5′-yl)-4-methyl-pentanoic acid]	58%	–	–
CC(C)CC(C(=O)O)c1cc(-c2cc(F)cc(F)c2)cc(-c2cc(F)cc(F)c2)c1 (stereo not shown) [Compound 38, 4-Methyl-2-(3,5,3″,5″-tetrafluoro-[1,1′;3′,1″]terphenyl-5′-yl)-pentanoic acid]	–	–	53%
CC(C)C[C@@H](C(=O)O)c1cc(-c2ccc(C(F)(F)F)cc2)cc(-c2ccc(Cl)c(F)c2)c1 [Compound 47, (R)-2-(4-Chloro-3-fluoro-4″-trifluoromethyl-[1,1′;3′,1″]terphenyl-5′-yl)-4-methyl-pentanoic acid]	45%	–	–
Cc1ccc(-c2cc(-c3ccc(C(F)(F)F)cc3)cc(C(CC(C)C)C(=O)O)c2)cc1 (stereo not shown) [Compound 11, 4-Methyl-2-(4-methyl-4″-trifluoromethyl-[1,1′;3′,1″]terphenyl-5′-yl)-pentanoic acid]	–	–	68%
CC(C)CC(C(=O)O)c1cc(-c2ccc(C#N)cc2)cc(-c2ccc(C(F)(F)F)cc2)c1 (stereo not shown) [Compound 16, 2-(4-Cyano-4″-trifluoromethyl-[1,1′;3′,1″]terphenyl-5′-yl)-4-methyl-pentanoic acid]	10%	–	–
CC(C)CC(C(=O)O)c1cc(-c2cccc(C#N)c2)cc(-c2cc(C(F)(F)F)cc(C(F)(F)F)c2)c1 (stereo not shown) [Compound 34, 2-(3-Cyano-3″,5″-bis-trifluoromethyl-[1,1′;3′,1″]terphenyl-5′-yl)-4-methyl pentanoic acid]	–	–	73%
COc1ccc(-c2cc(-c3ccc(C(F)(F)F)cc3)cc(C(CC(C)C)C(=O)O)c2)cc1 (stereo not shown) [Compound 24, 2-(4-Methoxy-4″-trifluoromethyl-[1,1′;3′,1″]terphenyl-5′-yl)-4-methyl-pentanoic acid]	–	–	53%
CC(C)CC(C(=O)O)c1cc(-c2ccc(C(F)(F)F)cc2)cc(-c2cc(Cl)ccc2Cl)c1 (stereo not shown) [Compound 23, 2-(2,5-Dichloro-4″-trifluoromethyl-[1,1′;3′,1″]terphenyl-5′-yl)-4-methyl-pentanoic acid]	–	–	84%
CC(C)CC(C(=O)O)c1cc(-c2ccc(C(F)(F)F)cc2)cc(-c2ccc(S(C)(=O)=O)cc2)c1 (stereo not shown) [Compound 21, 2-(4-Methanesulfonyl-4″-trifluoromethyl-[1,1′;3′,1″]terphenyl-5′-yl)-4-methyl-pentanoic acid]	–	–	46%
CC(C)C[C@@H](C(=O)O)c1cc(-c2ccc(C(F)(F)F)cc2)cc(-c2cc(F)cc(F)c2)c1 [Compound 42, (R)-2-(3,5-Difluoro-4″-trifluoromethyl-[1,1′;3′,1″]terphenyl-5′-yl)-4-methyl-pentanoic acid]	48%	–	–
CC(C)CC(C(=O)O)c1cc(-c2ccc(C(F)(F)F)cc2)cc(-c2ccccc2C(F)(F)F)c1 (stereo not shown) [Compound 6, 2-(2,4″-Bis-trifluoromethyl-[1,1′;3′,1″]terphenyl-5′-yl)-4-methyl-pentanoic acid]	–	–	65%
CC(C)CC(C(=O)O)c1cc(-c2ccc(C#N)cc2)cc(-c2cc(C(F)(F)F)cc(C(F)(F)F)c2)c1 (stereo not shown) [Compound 37, 2-(4-Cyano-3″,5″-bis-trifluoromethyl-[1,1′;3′,1″]terphenyl-5′-yl)-4-methyl pentanoic acid]	–	–	84%
CC(C)CC(C(=O)O)c1cc(-c2ccc(C(F)(F)F)cc2)cc(-c2ccccc2F)c1 (stereo not shown) [Compound 8, 2-(2-Fluoro-4″-trifluoromethyl-[1,1′;3′,1″]terphenyl-5′-yl)-4-methyl-pentanoic acid]	–	–	-1%
CC(C)CC(C(=O)O)c1cc(-c2cc(F)cc(F)c2)cc(-c2cc(F)cc(C(F)(F)F)c2)c1 (stereo not shown) [Compound 32, 4-Methyl-2-(3,5,3″-trifluoro-5″-trifluoromethyl-[1,1′;3′,1″]terphenyl-5′-yl)-pentanoic acid]	–	–	80%
